{"source": "patent US9616129B2", "about": "“Compositions and methods for potentiating immune response, enhancing immunotherapy, and increasing vaccine potency” (Nitor Therapeutics, priority 2013, dated 2017)", "key": {"human TLR8": {"target": "T1, human TLR8 (Homo sapiens, UniProt Q9NR97)", "T1 construct": "expressed in transfected cells; host or cells: HEK293", "T1 sequence (Q9NR97 27-1041)": "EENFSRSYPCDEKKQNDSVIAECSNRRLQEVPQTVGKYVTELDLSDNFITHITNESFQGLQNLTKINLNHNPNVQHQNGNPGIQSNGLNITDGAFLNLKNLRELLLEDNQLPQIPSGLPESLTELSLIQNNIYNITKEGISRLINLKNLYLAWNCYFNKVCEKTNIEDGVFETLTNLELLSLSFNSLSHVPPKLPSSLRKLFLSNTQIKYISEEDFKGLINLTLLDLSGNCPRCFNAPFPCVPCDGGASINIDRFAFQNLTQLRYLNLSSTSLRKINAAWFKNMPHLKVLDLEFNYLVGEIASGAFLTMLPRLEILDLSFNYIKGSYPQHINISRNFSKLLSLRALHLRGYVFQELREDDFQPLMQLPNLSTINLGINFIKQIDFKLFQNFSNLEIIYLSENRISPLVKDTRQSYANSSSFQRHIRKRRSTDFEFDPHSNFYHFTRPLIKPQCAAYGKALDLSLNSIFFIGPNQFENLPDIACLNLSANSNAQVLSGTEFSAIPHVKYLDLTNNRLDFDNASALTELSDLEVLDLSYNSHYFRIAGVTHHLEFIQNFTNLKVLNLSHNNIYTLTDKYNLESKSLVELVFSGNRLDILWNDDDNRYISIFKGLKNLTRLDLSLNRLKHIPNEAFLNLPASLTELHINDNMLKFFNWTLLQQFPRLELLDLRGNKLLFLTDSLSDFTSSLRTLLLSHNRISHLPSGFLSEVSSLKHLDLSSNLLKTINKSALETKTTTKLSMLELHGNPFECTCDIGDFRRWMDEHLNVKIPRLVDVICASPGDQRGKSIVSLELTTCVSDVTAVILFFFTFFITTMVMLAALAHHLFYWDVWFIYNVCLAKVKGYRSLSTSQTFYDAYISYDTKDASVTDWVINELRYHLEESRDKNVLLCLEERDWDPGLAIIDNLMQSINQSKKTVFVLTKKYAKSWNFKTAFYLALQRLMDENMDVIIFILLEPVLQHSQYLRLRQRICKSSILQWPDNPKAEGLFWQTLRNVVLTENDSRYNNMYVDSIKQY", "assay": "TLR ligand screening, NF-κB SEAP reporter in HEK293 cells expressing TLR8", "assay_type": "cell-based", "details": "one concentration: NTR001 10 uM, Inosine 100 uM; FIG. 2", "description": "(§1) TLR stimulation is tested by assessing NF-κB activation in HEK293 cells expressing a given TLR. The Secreted Embryonic Alkaline Phosphatase (SEAP) reporter is under the control of a promoter inducible by the transcription factor NF-κB. This reporter gene allows the monitoring of signaling through the TLR, based on the activation of NF-κB. The compounds are evaluated at one concentration and compared to control ligands. This step is performed in triplicate."}, "human TLR5": {"target": "T2, human TLR5 (Homo sapiens, UniProt O60602)", "T2 construct": "expressed in transfected cells; host or cells: HEK293", "T2 sequence (O60602 21-858)": "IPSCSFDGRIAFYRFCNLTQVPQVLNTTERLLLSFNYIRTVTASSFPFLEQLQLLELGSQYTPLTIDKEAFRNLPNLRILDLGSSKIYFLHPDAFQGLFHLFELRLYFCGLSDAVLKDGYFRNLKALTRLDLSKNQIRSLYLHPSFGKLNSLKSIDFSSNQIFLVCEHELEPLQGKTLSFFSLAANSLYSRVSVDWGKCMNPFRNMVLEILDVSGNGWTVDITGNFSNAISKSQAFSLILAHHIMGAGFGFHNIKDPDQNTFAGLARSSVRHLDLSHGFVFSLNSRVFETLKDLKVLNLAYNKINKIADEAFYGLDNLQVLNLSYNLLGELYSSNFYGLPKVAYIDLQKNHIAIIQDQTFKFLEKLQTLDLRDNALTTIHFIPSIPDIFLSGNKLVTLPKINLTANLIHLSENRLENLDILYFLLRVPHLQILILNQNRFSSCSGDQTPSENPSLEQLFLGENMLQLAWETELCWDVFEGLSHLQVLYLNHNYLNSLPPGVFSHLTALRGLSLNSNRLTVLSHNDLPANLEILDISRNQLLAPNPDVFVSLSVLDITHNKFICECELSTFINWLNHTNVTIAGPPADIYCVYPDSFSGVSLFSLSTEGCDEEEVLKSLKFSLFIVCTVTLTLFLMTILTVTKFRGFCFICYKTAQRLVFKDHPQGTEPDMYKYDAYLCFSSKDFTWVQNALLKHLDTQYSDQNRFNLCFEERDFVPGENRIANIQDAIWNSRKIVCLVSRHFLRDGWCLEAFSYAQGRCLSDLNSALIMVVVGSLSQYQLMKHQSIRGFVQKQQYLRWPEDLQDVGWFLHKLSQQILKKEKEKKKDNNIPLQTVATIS", "assay": "TLR ligand screening, NF-κB SEAP reporter in HEK293 cells expressing TLR5", "assay_type": "cell-based", "details": "one concentration: NTR001 10 uM, Inosine 100 uM; FIG. 2", "description": "as §1"}, "human TLR2": {"target": "T3, human TLR2 (Homo sapiens, UniProt O60603)", "T3 construct": "expressed in transfected cells; host or cells: HEK293", "T3 sequence (O60603 21-784)": "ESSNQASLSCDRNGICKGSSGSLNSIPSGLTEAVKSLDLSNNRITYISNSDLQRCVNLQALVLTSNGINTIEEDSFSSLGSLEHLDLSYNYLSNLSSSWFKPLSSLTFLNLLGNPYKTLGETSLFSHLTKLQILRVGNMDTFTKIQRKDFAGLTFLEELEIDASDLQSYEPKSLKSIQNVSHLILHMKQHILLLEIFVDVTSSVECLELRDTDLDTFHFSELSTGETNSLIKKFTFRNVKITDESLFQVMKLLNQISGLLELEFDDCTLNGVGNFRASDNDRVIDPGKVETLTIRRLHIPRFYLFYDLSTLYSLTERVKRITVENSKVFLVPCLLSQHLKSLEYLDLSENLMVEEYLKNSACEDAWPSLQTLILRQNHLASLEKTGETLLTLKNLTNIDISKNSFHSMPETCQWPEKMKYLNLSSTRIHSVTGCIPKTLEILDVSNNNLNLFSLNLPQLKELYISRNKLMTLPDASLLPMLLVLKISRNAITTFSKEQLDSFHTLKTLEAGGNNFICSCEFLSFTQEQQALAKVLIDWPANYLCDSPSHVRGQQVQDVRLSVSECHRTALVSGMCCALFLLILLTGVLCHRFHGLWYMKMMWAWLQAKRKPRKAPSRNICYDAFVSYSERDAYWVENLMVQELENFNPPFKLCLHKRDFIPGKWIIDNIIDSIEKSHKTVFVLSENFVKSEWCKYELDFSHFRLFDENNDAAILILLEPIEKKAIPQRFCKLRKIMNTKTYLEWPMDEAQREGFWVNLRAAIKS", "assay": "TLR ligand screening, NF-κB SEAP reporter in HEK293 cells expressing TLR2", "assay_type": "cell-based", "details": "one concentration: Guanosine 100 uM, NTR001 10 uM, Inosine 100 uM; FIG. 2", "description": "as §1"}, "human TLR9": {"target": "T4, human TLR9 (Homo sapiens, UniProt Q9NR96)", "T4 construct": "expressed in transfected cells; host or cells: HEK293", "T4 sequence (Q9NR96 26-1032)": "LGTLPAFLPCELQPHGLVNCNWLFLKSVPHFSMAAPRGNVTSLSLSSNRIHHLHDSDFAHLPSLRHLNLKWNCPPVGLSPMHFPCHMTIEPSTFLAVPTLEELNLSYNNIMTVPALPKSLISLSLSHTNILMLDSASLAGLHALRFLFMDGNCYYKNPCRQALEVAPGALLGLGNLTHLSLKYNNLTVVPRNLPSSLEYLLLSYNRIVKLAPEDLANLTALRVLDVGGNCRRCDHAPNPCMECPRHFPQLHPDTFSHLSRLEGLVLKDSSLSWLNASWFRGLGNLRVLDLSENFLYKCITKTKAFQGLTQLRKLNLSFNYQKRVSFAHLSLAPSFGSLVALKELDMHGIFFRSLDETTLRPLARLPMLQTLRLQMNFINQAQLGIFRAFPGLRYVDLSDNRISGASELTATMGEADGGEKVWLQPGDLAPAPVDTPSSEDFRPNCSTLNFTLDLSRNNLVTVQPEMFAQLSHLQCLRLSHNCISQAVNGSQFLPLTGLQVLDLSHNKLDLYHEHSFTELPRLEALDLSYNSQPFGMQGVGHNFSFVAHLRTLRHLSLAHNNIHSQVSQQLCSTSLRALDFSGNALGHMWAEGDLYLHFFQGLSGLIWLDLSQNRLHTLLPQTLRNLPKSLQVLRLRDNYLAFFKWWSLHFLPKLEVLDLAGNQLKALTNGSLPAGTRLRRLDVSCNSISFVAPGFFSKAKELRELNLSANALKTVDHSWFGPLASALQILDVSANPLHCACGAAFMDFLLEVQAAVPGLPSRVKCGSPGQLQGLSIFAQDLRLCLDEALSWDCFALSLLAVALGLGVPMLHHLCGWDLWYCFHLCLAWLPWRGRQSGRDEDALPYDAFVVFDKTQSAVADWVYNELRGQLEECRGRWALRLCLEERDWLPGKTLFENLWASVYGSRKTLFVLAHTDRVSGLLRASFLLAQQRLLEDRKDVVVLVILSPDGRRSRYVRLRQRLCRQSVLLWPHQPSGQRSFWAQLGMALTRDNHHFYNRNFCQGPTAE", "assay": "TLR ligand screening, NF-κB SEAP reporter in HEK293 cells expressing TLR9", "assay_type": "cell-based", "details": "one concentration: NTR001 10 uM, Inosine 100 uM; FIG. 2", "description": "as §1"}, "[1]": {"tested_on": "L. monocytogenes (ATCC Strain35152, hemolytic substrain)", "assay": "Mouse model of L. monocytogenes infection", "assay_type": "in vivo", "details": "Balb/c mice infected i.v. with 1×10^6 CFU; treatments per Table 3; FIGS. 7 and 9"}, "B16 tumors": {"tested_on": "B16 tumors", "assay": "Syngeneic mouse melanoma model", "assay_type": "in vivo, C57BL/6 mice", "description": "Cancer cells were injected subcutaneously in right flank of each mouse, 1×10^4 cells in 0.1 ml PBS with 20% Matrigel. Treatment with the NTR001 was initiated on day 6 after injection of tumor cells. Tumor volume and survival were recorded every 3-4 days."}, "tetanus toxoid vaccine": {"tested_on": "tetanus toxoid vaccine", "assay": "Tetanus toxoid vaccine efficacy study (adjuvant) in mice", "assay_type": "in vivo", "details": "compared to vehicle treated group", "description": "Tetanus toxoid (TT) was used to vaccinate mice thrice, two weeks apart. Mice were treated by oral administration of compounds NTR001 and NTR002 and serum was collected at various time points for antibody titer and interferon-g analysis. Mice in Groups 2-6 (Table 2) are vaccinated subcutaneously with 0.1 ml tetanus toxoid vaccine on DAYS 0, 14 and 28. Mice in Group 1 (Table 1) received no vaccine. Antibody titers for DAYS 38 are determined by ELISA using tetanus toxoid coated microtiter plates and anti-mouse conjugate. Sera from DAY 30 are assayed by ELISA for interferon-g."}}}
{"smiles": "OC[C@H]1O[C@@H](n2cnc3c(O)ncnc32)[C@H](O)[C@@H]1O", "note": "[Inosine]", "values": [{"measurement": "stimulatory effect on human TLR8 (NF-κB activation)", "setting": "human TLR8", "value": "do not exhibit a stimulatory effect"}, {"measurement": "stimulatory effect on human TLR5 (NF-κB activation)", "setting": "human TLR5", "value": "do not exhibit a stimulatory effect"}, {"measurement": "stimulatory effect on human TLR2 (NF-κB activation)", "setting": "human TLR2", "value": "do not exhibit a stimulatory effect"}, {"measurement": "stimulatory effect on human TLR9 (NF-κB activation)", "setting": "human TLR9", "value": "do not exhibit a stimulatory effect"}]}
{"smiles": "O=c1[nH]cnc2c([C@@H]3N[C@H](CO)[C@@H](O)[C@H]3O)c[nH]c12", "note": "[NTR001, 7-[(2S,3S,4R,5R)-3,4-dihydroxy-5-(hydroxymethyl)-2-pyrrolidinyl]-1,5-dihydro-4H-pyrrolo[3,2-d]pyrimidin-4-one]", "values": [{"measurement": "stimulatory effect on human TLR8 (NF-κB activation)", "setting": "human TLR8", "value": "do not exhibit a stimulatory effect"}, {"measurement": "stimulatory effect on human TLR5 (NF-κB activation)", "setting": "human TLR5", "value": "do not exhibit a stimulatory effect"}, {"measurement": "weight loss", "setting": "[1]", "value": "significant decrease"}, {"measurement": "stimulatory effect on human TLR2 (NF-κB activation)", "setting": "human TLR2", "value": "do not exhibit a stimulatory effect"}, {"measurement": "tumor volume", "setting": "B16 tumors; B16 melanoma, C57BL/6 mice, treatment from day 6, FIG. 5", "value": "significant decrease"}, {"measurement": "survival", "setting": "B16 tumors; NTR001 as single agent (30 mg/kg PO week on/off or 5 mg/kg drinking water), FIG. 6", "value": "0-20%"}, {"measurement": "stimulatory effect on human TLR9 (NF-κB activation)", "setting": "human TLR9", "value": "do not exhibit a stimulatory effect"}, {"measurement": "serum interferon-g", "setting": "tetanus toxoid vaccine; day 30, ELISA, high dose group 60 mg/kg p.o., FIG. 4", "value": "elevated"}, {"measurement": "serum tetanus toxoid antibody titers", "setting": "tetanus toxoid vaccine; day 38, ELISA, p.o. 30 mg/kg (6 days of treatment) and 60 mg/kg (3 days of treatment), FIG. 3", "value": "significantly elevated"}]}
